Data taken from the supplement of paper PMC5579334.

What was measured:
ST8814 [1] = assay: relative IC50 (inflection point of fitted dose-response curve, CellTox-Green cytotoxicity, 72 h; top asymptote may be below 50%); higher = less potent
Outline: (§1)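 MPNST cell lines and primary human Schwann cells were incubated 72 h at 37 °C in 384-well plates holding five 10-fold compound dilutions. CellTox-Green was added before seeding at a final 1:1000 dilution and reported fluorescence from DNA released by disrupted cells. Signals were scaled to vehicle and positive-control wells, and cultures failing plate quality control were dropped. Drug sensitivity score and relative IC50 come from four-parameter logistic fits, with IC50 censored at the top concentration.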

HSC2 [2] = assay: as above
Outline: as §1

HSC1 [3] = assay: as above
Outline: as §1

STS26T [4] = assay: relative IC50 (inflection point of fitted dose-response curve, CellTiter-Glo viability, 72 h; top asymptote may be below 50% inhibition); higher = less potent
Outline: (§2)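 Viability was scored by CellTiter-Glo ATP luminescence, scaled from vehicle to positive-control wells, with duplicates averaged where present. The cells, MPNST lines and primary human Schwann cells at 750–1000 per well, sat 72 h at 37 °C, 5% CO2, in 384-well plates preprinted with each compound at five concentrations in 10-fold steps. Four-parameter logistic fits were run on the data. These fits give drug sensitivity score and relative IC50 censored at the top concentration, and percent inhibition is reported at the top concentration.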

ST8814 [5] = assay: as above
Outline: as §2

HSC2 [6] = assay: as above
Outline: as §2

S462 = assay: as above
Outline: as §2

HSC1 [7] = assay: as above
Outline: as §2

S1507-2 = assay: as above
Outline: as §2

HS-PSS [8] = assay: relative IC50 (inflection point of fitted dose-response curve, CellTox-Green cytotoxicity, 72 h; top asymptote may be below 50%); higher = less potent
Outline: as §1

YST-1 = assay: relative IC50 (inflection point of fitted dose-response curve, CellTiter-Glo viability, 72 h; top asymptote may be below 50% inhibition); higher = less potent
Outline: as §2

HS-Sch-2 = assay: as above
Outline: as §2

HS-PSS [9] = assay: as above
Outline: as §2

STS26T [10] = assay: relative IC50 (inflection point of fitted dose-response curve, CellTox-Green cytotoxicity, 72 h; top asymptote may be below 50%); higher = less potent
Outline: as §1

SMILES | relative IC50 (ST8814 [1]) [nM] | relative IC50 (HSC2 [2]) [nM] | relative IC50 (HSC1 [3]) [nM] | relative IC50 (STS26T [4]) [nM] | relative IC50 (ST8814 [5]) [nM] | relative IC50 (HSC2 [6]) [nM] | relative IC50 (S462) [nM] | relative IC50 (HSC1 [7]) [nM] | relative IC50 (S1507-2) [nM] | relative IC50 (HS-PSS [8]) [nM] | relative IC50 (YST-1) [nM] | relative IC50 (HS-Sch-2) [nM] | relative IC50 (HS-PSS [9]) [nM] | relative IC50 (STS26T [10]) [nM]
COc1ncc(-c2ccc3nccc(-c4ccnnc4)c3c2)cc1NS(=O)(=O)c1ccc(F)cc1F | 161 | > 1000 | > 1000 | 18.5 | 52.2 | 25.5 | 63.2 | 22.7 | 17.6 | – | – | – | – | –
Cn1cc(C[C@@H](N)C(=O)O)c2ccccc21 [1-methyl-D-tryptophan aq] | > 5000 | > 5000 | > 5000 | > 5000 | > 5000 | > 5000 | > 5000 | > 5000 | > 5000 | – | – | – | – | –
CNC(=O)c1ccc(N2C(=S)N(c3cnc(C#N)c(C(F)(F)F)c3)C(=O)C23CCC3)cc1F [ARN 509] | > 10000 | > 10000 | > 10000 | > 10000 | > 10000 | > 10000 | > 10000 | > 10000 | > 10000 | > 10000 | – | – | – | –
CN(C)CCN1C(=O)c2cccc3cc(N)cc(c23)C1=O [Amonafide] | 3150 | – | > 10000 | 2240 | 1690 | 1860 | 1650 | 1350 | 1360 | 2150 | 1020 | 1700 | 2410 | –
Nc1ncn([C@@H]2O[C@H](CO)[C@@H](O)[C@H]2O)c(=O)n1 [Azacitidine] | > 10000 | > 10000 | > 10000 | 3840 | – | 3320 | 2580 | 2340 | > 10000 | > 10000 | – | – | – | > 10000
Nc1ccn([C@@H]2O[C@H](CO)[C@@H](O)[C@@H]2O)c(=O)n1 [Cytarabine] | 786 | 1960 | 2180 | 236 | 689 | 290 | 163 | 283 | 1520 | 336 | 210 | 688 | 479 | –
Cc1ccc(-n2nc(C(C)(C)C)cc2NC(=O)Nc2ccc(OCCN3CCOCC3)c3ccccc23)cc1 [Doramapimod] | > 10000 | > 10000 | > 10000 | > 10000 | > 10000 | 1760 | – | 3010 | > 10000 | – | 667 | 2330 | 1640 | > 10000
COc1cccc2c1C(=O)c1c(O)c3c(c(O)c1C2=O)C[C@@](O)(C(=O)CO)C[C@@H]3O[C@H]1C[C@H](N)[C@H](O)[C@H](C)O1 [Doxorubicin] | > 1000 | 346 | – | 81.2 | 130 | 109 | 71.2 | 83.2 | 72.5 | 367 | 54.9 | 133 | 199 | –
O=S(=O)(c1cccc2cnccc12)N1CCCNCC1 [Fasudil] | > 50000 | > 50000 | > 50000 | 17600 | – | 16600 | 16100 | 13000 | 19700 | – | 16500 | 16700 | 19800 | 20200
CC(C)(C)NC(=O)[C@H]1CC[C@H]2[C@@H]3CC[C@H]4NC(=O)C=C[C@]4(C)[C@H]3CC[C@]12C [Finasteride] | > 10000 | > 10000 | > 10000 | – | > 10000 | > 10000 | > 10000 | > 10000 | > 10000 | > 10000 | > 10000 | > 10000 | > 10000 | > 10000
C[C@]12CC[C@@H]3c4ccc(O)cc4C[C@@H](CCCCCCCCC[S+]([O-])CCCC(F)(F)C(F)(F)F)[C@H]3[C@@H]1CC[C@@H]2O (stereo partly drawn) [Fulvestrant] | > 1000 | > 1000 | > 1000 | > 1000 | > 1000 | – | > 1000 | – | > 1000 | > 1000 | > 1000 | > 1000 | – | > 1000
NC(=O)c1ccc(I)c([N+](=O)[O-])c1 [Iniparib] | > 10000 | > 10000 | > 10000 | > 10000 | > 10000 | > 10000 | > 10000 | > 10000 | > 10000 | > 10000 | > 10000 | > 10000 | > 10000 | –
C[C@]12O[C@H](C[C@]1(O)CO)n1c3ccccc3c3c4c(c5c6ccccc6n2c5c31)CNC4=O [Lestaurtinib] | 290 | – | – | 155 | 130 | 24.9 | 93.8 | 29.3 | 101 | > 1000 | 59.8 | 112 | 87.2 | –
C[C@]1(O)C[C@@H](c2nc(-c3ccc4ccc(-c5ccccc5)nc4c3)c3c(N)nccn32)C1 [Linsitinib] | > 10000 | > 10000 | > 10000 | – | > 10000 | > 10000 | 101 | 3.91 | 20.7 | > 10000 | 567 | 770 | > 10000 | > 10000
Cn1cnc(-c2cc3nccc(Oc4ccc(NC(=S)NC(=O)Cc5ccccc5)cc4F)c3s2)c1 [MGCD-265] | – | – | > 10000 | – | 439 | – | 2100 | – | 501 | > 10000 | – | 1730 | – | > 10000
O=C(O)CC[C@H]1CC[C@@](c2cc(F)ccc2F)(S(=O)(=O)c2ccc(Cl)cc2)CC1 [MK-0752] | > 1000 | > 1000 | > 1000 | > 1000 | > 1000 | – | > 1000 | – | > 1000 | > 1000 | > 1000 | – | > 1000 | > 1000
